According to patent US11357778B2, “Antagonist of the fibroblast growth factor receptor 3 (FGFR3) for use in the treatment or the prevention of skeletal disorders linked with abnormal activation of FGFR3” (INSTITUT NATIONAL DE LA SANTE ET DE LE RECHERCHE MEDICALE …, priority 2011, dated 2022):

Key:
[1] = system: FGFR3^Y373C transfected NIH3T3 cells; test: [3H]-thymidine incorporation in NIH3T3 cells expressing FGFR3^Y373C; assay type: cell-based, mouse; conditions: A31 2 mM
Description: (§1) NIH-3T3 clones stably expressing FGFR3^+/+ (WT) and FGFR3^Y373C, FGFR3K650M (human constructs) were used. The stable clones were selected with G418. NIH-3T3 clones were incubated for 8 h in 10% newborn calf serum DMEM supplemented or not with A31 (2 mM). [3H] thymidine was added at a concentration of […] and incubated for 16 hours. The cells were harvested on glass fiber filter paper and assayed for radioactivity by liquid scintillation counting. The inventors used Top Count Microplates scintillation counter (Perkin Elmer).
(§2) To determine whether A31 modulates the mitogenic activity of activated FGFR3, the inventors measured [3H]-thymidine incorporation in FGFR3^Y373C and FGFR3^K650M transfected NIH3T3 cells. The mitogenic activity was increased in cells expressing FGFR3 mutations compared to WT (FGFR3^Y373C, 9927±2921 cpm; FGFR3^K650M, 15048±5251 cpm; WT, 7499±1667 cpm; p<10^−5 versus WT).

[2] = system: FGFR3^K650M transfected NIH3T3 cells; test: [3H]-thymidine incorporation in NIH3T3 cells expressing FGFR3^K650M; assay type: cell-based, mouse; conditions: A31 2 mM
Description: as §1, §2

WT femurs = test: Ex vivo culture of E16.5 embryonic femur explants, bone length, wild type; assay type: cell-based, mouse; conditions: A31 2 mM, 5 days of culture
Description: (§3) Six sets of ex vivo experiments were performed. Femur embryos at day E16.5 from WT (n=6) and Fgfr3^Y367C/+ (n=6) mice were used and incubated for 5 days in DMEM medium with antibiotics and 0.2% BSA (Sigma) supplemented with A31 or PD173074 (as control) at a concentration of 2 mM. Right femur was cultured in supplemented medium and compared with the left one cultured in control medium. Rib cage from E16.5 WT and Fgfr3^Y367C/+ mice embryos were isolated and stripped of all soft tissues. Primary chondrocytes were obtained from rib cages. The ribs were incubated in a pronase solution (Roche; 2 mg/ml) followed by a digestion in Collagenase A (Roche; 3 mg/ml) at 37° C. Isolated chondrocytes were plated out at a density of 2.105 cells in 6-well plates containing DMEM supplemented with 10% FCS and antibiotics, and were allowed to reach subconfluency. Cultures were supplemented with A31 or PD173074 (as control) at a concentration of 2 mM. […] To establish the effect of the inhibitors, the right femur was cultured in supplemented medium and compared with the left one cultured in control medium The bone length was measured at the beginning (before treatment) and at the end of time course. […] The genotype of WT, Fgfr3^Y367C/+ and Fgfr3^−/− mice were determined by PCR of tail DNA as previously described (Pannier et al., Biochim Biophys Acta, 1792: 140-147, 2009). […]

[3] = system: Fgfr3^Y367C/+ growth plate; test: Histology of cultured femur growth plate (HES staining, type X collagen in situ hybridization); assay type: cell-based, mouse
Description: Limb explants were fixed after culture in 4% paraformaldehyde at 4° C., and placed in a staining solution for 45-60 minutes (0.05% Alizarin Red, 0.015% Alcian Blue, 5% acetic acid in 70% ethanol) or embedded in paraffin. Serial […] were stained with Hematoxylin-Eosin using standard protocols for histological analysis or were subjected to in situ hybridization or immunohistochemical staining. In situ hybridization using [S35]-UTP labeled antisense ribopropes for collagen X was carried out as previously described (Delezoide et al., Hum Mol Genet, 6, 1899-1906, 1997). Sections were counterstained with Hematoxylin. For immunohistochemistry, sections were stained with antibodies specific to FGFR3 (1:250 dilution; Sigma), anti PCNA (1:1000 dilution; Abcam), anti-KI67 (1:300; Abcam), anti-cyclin D1 (1:80 dilution; Santa Cruz) and anti-p57 (1:100 dilution; Santa Cruz) using the Dako Envision kit. Images were captured with an Olympus PD70-IX2-UCB microscope. […] The inventors evaluated the impact of A31 on the growth plate (FIG. 4A). […] Histological examinations using HES staining (FIG. 10A) and type X collagen labeling (FIG. 10B) were also carried out.

Fgfr3 [4] = test: Fgfr3 protein expression (immunohistochemistry of femurs, Western blot of costal primary chondrocytes); assay type: cell-based, mouse; conditions: A31; data not shown
Description: as §3, with “C.” for “C. Isolated chondrocytes were plated out at a density of 2.105 cells in 6-well plates containing DMEM supplemented with 10% FCS and antibiotics, and were allowed to reach subconfluency. Cultures were supplemented with A31 or PD173074 (as control) at a concentration of 2 mM.”
Immunoprecipitation were performed by incubating […] rabbit anti-FGFR3 (Sigma)/[…] protein with protein A-agarose (Roche). […] Bound proteins were detected by chemiluminescence (ECL, Amersham). The blots were rehybrididized with an antipan-actin antibody for quantification (Millipore). […]

FGFR3 [5] = target: FGFR3 (Homo sapiens, UniProt P22607); conditions: read-out: IC50 for inhibition of autophosphorylation of FGFR3; cited from earlier work
Sequence of FGFR3 (P22607 23-806): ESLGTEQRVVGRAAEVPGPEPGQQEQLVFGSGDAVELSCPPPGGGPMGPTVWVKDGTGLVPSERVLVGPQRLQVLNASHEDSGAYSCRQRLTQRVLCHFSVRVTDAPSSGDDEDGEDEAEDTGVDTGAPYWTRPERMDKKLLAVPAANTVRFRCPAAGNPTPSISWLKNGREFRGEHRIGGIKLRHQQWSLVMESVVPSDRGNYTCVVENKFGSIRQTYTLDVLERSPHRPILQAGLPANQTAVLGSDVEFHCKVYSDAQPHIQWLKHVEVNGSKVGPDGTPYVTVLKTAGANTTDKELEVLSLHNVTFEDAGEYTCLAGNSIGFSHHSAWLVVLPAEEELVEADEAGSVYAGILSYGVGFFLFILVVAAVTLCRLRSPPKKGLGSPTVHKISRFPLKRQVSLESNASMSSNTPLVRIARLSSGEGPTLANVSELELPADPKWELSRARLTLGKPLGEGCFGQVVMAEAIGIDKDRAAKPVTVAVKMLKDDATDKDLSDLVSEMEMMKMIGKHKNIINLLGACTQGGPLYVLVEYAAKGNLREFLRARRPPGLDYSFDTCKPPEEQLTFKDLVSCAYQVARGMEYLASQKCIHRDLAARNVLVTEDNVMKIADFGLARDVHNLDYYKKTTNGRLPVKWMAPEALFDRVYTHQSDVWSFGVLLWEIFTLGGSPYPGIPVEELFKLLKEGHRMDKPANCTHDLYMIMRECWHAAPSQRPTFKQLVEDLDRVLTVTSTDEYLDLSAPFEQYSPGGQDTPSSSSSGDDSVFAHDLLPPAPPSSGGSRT

SMILES: COc1cc(OC)cc(-c2cc3cnc(NCc4cn(CC5CCCN(C)C5)nn4)nc3nc2NC(=O)NC(C)(C)C)c1 (centres unmarked) [Compound A31]
- [3H]-thymidine incorporation (DNA synthesis) [1]: 3144±1201 cpm
- [3H]-thymidine incorporation (DNA synthesis) [2]: 6281±2699 cpm
- longitudinal bone growth (gain in femur length) (WT femurs): 1863±255 μm
- size of the hypertrophic zone of the growth plate ([3]; A31, Fgfr3^Y367C/+ femur explants): marked expansion of the hypertrophic zone
- type X collagen expression (in situ hybridization) ([3]; A31, Fgfr3^Y367C/+ growth plates): enhanced type X collagen expression
- chondrocyte morphology ([3]; A31, data not shown): enlarged and more spherical
- Fgfr3 expression in mutant femurs (immunohistochemical staining) (Fgfr3 [4]): large decrease of Fgfr3 expression
- IC50 (FGFR3 [5]): ~190 nM
